Test results published in ChEMBL document CHEMBL1773038, “In silico and in vitro validation of serine hydroxymethyltransferase as a chemotherapeutic target of the antifolate drug pemetrexed” (Eur J Med Chem, 2011).

How the values were obtained:
[1] = biological target: T1, Serine hydroxymethyltransferase, cytosolic (Homo sapiens, UniProt P34896); test: Binding affinity to human recombinant Serine hydroxymethyltransferase, cytosolic by isothermal titration calorimetry
T1 sequence (P34896 whole entry): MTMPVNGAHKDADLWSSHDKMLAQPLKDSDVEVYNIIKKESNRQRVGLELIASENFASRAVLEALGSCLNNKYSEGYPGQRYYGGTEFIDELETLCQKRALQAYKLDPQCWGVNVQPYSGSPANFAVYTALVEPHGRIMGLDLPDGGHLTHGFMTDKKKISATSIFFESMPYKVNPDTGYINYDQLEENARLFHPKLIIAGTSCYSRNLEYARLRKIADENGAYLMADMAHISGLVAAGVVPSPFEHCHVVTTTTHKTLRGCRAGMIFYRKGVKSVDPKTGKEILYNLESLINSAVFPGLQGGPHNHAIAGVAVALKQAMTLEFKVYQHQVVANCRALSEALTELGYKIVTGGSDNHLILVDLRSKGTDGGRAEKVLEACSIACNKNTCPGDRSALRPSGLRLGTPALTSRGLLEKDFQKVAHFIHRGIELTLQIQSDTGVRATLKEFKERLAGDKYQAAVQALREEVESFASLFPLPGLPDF

[2] = biological target: T1, Serine hydroxymethyltransferase, cytosolic; test: Competitive inhibition of human recombinant Serine hydroxymethyltransferase, cytosolic by spectrophotometry
[3] = biological target: T1, Serine hydroxymethyltransferase, cytosolic; test: Mixed-type inhibition of human recombinant Serine hydroxymethyltransferase, cytosolic measured by Y-axes intercepts of mixed-type inhibition against compound concentration by spectrophotometry
[4] = biological target: T1, Serine hydroxymethyltransferase, cytosolic; test: Inhibition of human recombinant Serine hydroxymethyltransferase, cytosolic measured by slope intercepts of mixed-type inhibition against compound concentration by spectrophotometry

Kd [1]: 16.9 µM
Ki [2]: 19.1 µM
Ki [3]: 186 µM
Ki [4]: 33 µM
SMILES: Nc1nc2[nH]cc(CCc3ccc(C(=O)N[C@@H](CCC(=O)O)C(=O)O)cc3)c2c(=O)[nH]1 [PEMETREXED]
